Measurements published in PubChem BioAssay AID602479 (National Center for Advancing Translational Sciences (NCATS), 2012).

Test system: mouse liver microsomes, metabolic half-life
Test: qHTS Assay for Inhibitors of Bacillus subtilis Sfp phosphopantetheinyl transferase (PPTase): Mouse Liver Microsome Stability (Half Time)
Description: PPTases are responsible for the activation of a variety of pathogen-associated virulence factors. Among these compounds are toxins such as mycolactone from Mycobacterium ulcerans, siderophores such as vibriobactin from Vibrio cholerae or mycobactin from Mycobacterium tuberculosis, as well as the mycolic acids which form the waxy cell wall of Mycobacteria. The biosyntheses of these natural products are considered attractive targets for drug design. After a large qHTS and several follow-up assays, a small molecule was identified and this in vitro ADME assay serves to better characterize its properties.
This bioassay provides profiling data on mouse liver microsome stability.
NIH Chemical Genomics Center [NCGC]
NIH Molecular Libraries Probe Centers Network [MLPCN]
Assay Submitter (PI): Michale Burkart, University of California, San Diego
1uM of compound in incubated in mouse liver microsome; the reference compound is ketanserin. Compounds are incubated at 37 degrees C for different time periods: 0, 5, 15, 30, 45, and 60 minutes. Samples are analyzed with LC-MS/MS.

`COc1ccnc(NC(=S)N2CCN(c3ncc(C(F)(F)F)cc3Cl)CC2)c1` gave a microsomal half-life of 49.5 min.
